Assays:
[1] = biological target: T1, human mGluR5d (Homo sapiens, UniProt P41594); experiment: FLIPR assay, mobilization of intracellular calcium in cells expressing human mGluR5d; format: cell-based; conditions: antagonism of agonist response, read-out: FLIPR hmGluR5d
T1 construct: expressed in transfected cells; The cells are kept under hygromycin B and Zeocin selection; The separate IP3 assay names GHEK cells stably expressing human mGluR5d
Description: Functional Assessment of mGluR5 Antagonism in Cell Lines Expressing mGluR5D
The properties of the compounds of the invention can be analyzed using standard assays for pharmacological activity. Examples of glutamate receptor assays are well known in the art as described in for example Aramori et al., Neuron 8:757 (1992), Tanabe et al. Neuron 8:169 (1992), Miller et al., J. Neuroscience 15: 6103 (1995), Balazs, et al., J. Neurochemistry 69:151 (1997). The methodology described in these publications is incorporated herein by reference. Conveniently, the compounds of the invention can be studied by means of an assay (FLIPR) that measures the mobilization of intracellular calcium, [Ca^2+]i in cells expressing mGluR5 or another assay (IP3) that measures inositol phosphate turnover.
Cells expressing human mGluR5d as described in WO97/05252 cultured in a mixture of high glucose DMEM with Glutamax (31966-021)(500 mL), 10% dialyzed fetal bovine serum (Hyclone #SH30079.03) (56 mL), 200 μg/mL Hygromycin B (Invitrogen 45-0430, 50 mg/mL) (2.2 mL), 200 μg/mL Zeocin (Invitrogen #R250-01; 100 mg/mL) (1.1 mL) are seeded at a density of 100,000 cells per well on collagen coated clear bottom 96-well plates with black sides and cells were allowed to adhere over night before experiments. All assays are done in a buffer containing 146 mM NaCl, 5 mM KCl, 1 mM MgCl2, 1 mM CaCl2, 20 mM HEPES, 1 mg/mL glucose and 1 mg/mL BSA Fraction IV (pH 7.4). Cell cultures in the 96-well plates are loaded for 60 minutes in the above mentioned buffer containing 6 μM of the acetoxymethyl ester form of the fluorescent calcium indicator fluo-3 (Molecular Probes, Eugene, Oreg.) in 0.025% pluronic acid (a proprietary, non-ionic surfactant polyol—CAS Number 9003-11-6). Following the loading period the fluo-3 buffer is removed and replaced with fresh assay buffer. FLIPR experiments are done using a laser setting of 0.700 W and a 0.4 second CCD camera shutter speed with excitation and emission wavelengths of 488 nm and 562 nm, respectively. Each experiment is initiated with 160 μl of buffer present in each well of the cell plate. A 40 μl addition from the antagonist plate was followed by a 50 μL addition from the agonist plate. A 30 minutes, in dark at 25° C., interval separates the antagonist and agonist additions. The fluorescence signal is sampled 50 times at 1-second intervals followed by 3 samples at 5-second intervals immediately after each of the two additions. Responses are measured as the difference between the peak heights of the response to agonist, less the background fluorescence within the sample period. IC50 determinations are made using a […] least squares fitting program.

[2] = Determination of brain to plasma ratio in rat; format: in vivo; conditions: brain and plasma, female Sprague Dawley rats, read-out: Brain/Plasma Ratio of compound in Rat
Procedure: Brain to plasma ratios are estimated in female Sprague Dawley rats. The compound is dissolved in water or another appropriate vehicle. For determination of brain to plasma ratio the compound is administrated as a subcutaneous, or an intravenous bolus injection, or an intravenous infusion, or an oral administration. At a predetermined time point after the administration a blood sample is taken with cardiac puncture. The rat is terminated by cutting the heart open, and the brain is immediately retained. The blood samples are collected in heparinized tubes and centrifuged within 30 minutes, in order to separate the plasma from the blood cells. The plasma is transferred to 96-well plates and stored at −20° C. until analysis. The brains are divided in half, and each half is placed in a pre-tarred tube and stored at −20° C. until analysis. Prior to the analysis, the brain samples are thawed and 3 mL/g brain tissue of distilled water is added to the tubes. The brain samples are sonicated in an ice bath until the samples are homogenized. Both brain and plasma samples are precipitated with acetonitrile. After centrifugation, the supernatant is diluted with 0.2% formic acid. Analysis is performed on a short reversed-phase HPLC column with rapid gradient elution and MSMS detection using a triple quadrupole instrument with electrospray ionisation and Selected Reaction Monitoring (SRM) acquisition. Liquid-liquid extraction may be used as an alternative sample clean-up. The samples are extracted, by shaking, to an organic solvent after addition of a suitable buffer. An aliquot of the organic layer is transferred to a new vial and evaporated to dryness under a stream of nitrogen. After reconstitution of the residuals the samples are ready for injection onto the HPLC column.

T1 sequence (P41594 21-942 isoform P41594-3 limits assumed): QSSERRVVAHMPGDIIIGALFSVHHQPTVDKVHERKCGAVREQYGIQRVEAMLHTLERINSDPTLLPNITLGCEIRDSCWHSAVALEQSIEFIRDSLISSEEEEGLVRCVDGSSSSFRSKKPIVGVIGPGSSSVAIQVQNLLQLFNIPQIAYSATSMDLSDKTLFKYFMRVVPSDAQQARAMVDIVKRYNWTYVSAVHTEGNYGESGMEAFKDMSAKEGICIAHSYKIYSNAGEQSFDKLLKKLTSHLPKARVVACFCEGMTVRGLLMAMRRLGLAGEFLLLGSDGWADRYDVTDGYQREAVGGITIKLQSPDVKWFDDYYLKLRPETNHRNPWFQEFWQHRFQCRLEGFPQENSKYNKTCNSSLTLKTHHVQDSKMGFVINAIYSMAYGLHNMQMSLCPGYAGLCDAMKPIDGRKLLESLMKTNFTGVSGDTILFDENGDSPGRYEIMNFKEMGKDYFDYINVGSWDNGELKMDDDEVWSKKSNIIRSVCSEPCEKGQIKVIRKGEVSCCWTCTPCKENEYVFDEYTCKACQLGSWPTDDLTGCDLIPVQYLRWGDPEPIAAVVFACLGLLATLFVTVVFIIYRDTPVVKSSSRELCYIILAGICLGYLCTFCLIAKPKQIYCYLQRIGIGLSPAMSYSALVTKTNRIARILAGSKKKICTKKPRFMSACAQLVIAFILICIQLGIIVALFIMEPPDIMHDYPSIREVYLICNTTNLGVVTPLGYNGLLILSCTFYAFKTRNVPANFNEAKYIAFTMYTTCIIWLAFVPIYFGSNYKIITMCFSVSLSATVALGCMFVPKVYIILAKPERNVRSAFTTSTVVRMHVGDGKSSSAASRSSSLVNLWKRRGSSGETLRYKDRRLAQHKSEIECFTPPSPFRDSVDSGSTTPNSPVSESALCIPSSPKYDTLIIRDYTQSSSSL

SMILES | IC50 [1] | Kp [2]
CC(c1cc(-c2cccc(Cl)c2)on1)N(C)c1nnc(-c2ccn(C)c(=O)c2)n1C (single isomer, unassigned; (-)) [(−) 5.1] | 30 nM | < 0.01
CC(c1cc(-c2cccc(Cl)c2)on1)N(c1nnc(-c2cn[nH]c(=O)c2)n1C)C1CC1 (single isomer, unassigned; (-)) [(−) 5.2] | 111 nM | < 0.01
Cn1c(-c2cn[nH]c(=O)c2)nnc1N(Cc1cc(-c2cccc(Cl)c2)on1)C1CC1 [Example 4.1, 5-{5-[{[5-(3-Chlorophenyl)isoxazol-3-yl]methyl}(cyclopropyl)amino]-4-methyl-4H-1,2,4-triazol-3-yl}pyridazin-3(2H)-one] | 41 nM | < 0.01
CCN(Cc1cc(-c2cccc(Cl)c2)on1)c1nnc(-c2cc[nH]c(=O)c2)n1C [Example 4.2, 4-{5-[{[5-(3-Chlorophenyl)-isoxazol-3-yl]methyl}(ethyl)amino]-4-methyl-4H-1,2,4-triazol-3-yl}pyridin-2(1H)-one] | 31 nM | 0.02
CCN(Cc1cc(-c2cccc(Cl)c2)on1)c1nnc(-c2cn[nH]c(=O)c2)n1C [Example 4.3, 5-{5-[{[5-(3-Chlorophenyl)-isoxazol-3-yl]methyl}(ethyl)-amino]-4-methyl-4H-1,2,4-triazol-3-yl}pyridazin-3(2H)-one] | 21 nM | 0.015
CCn1c(-c2cc(=O)[nH]cn2)nnc1N(C)Cc1cc(-c2cccc(Cl)c2)on1 [Example 4.4, 6-{5-[{[5-(3-chlorophenyl)-isoxazol-3-yl]methyl}(methyl)amino]-4-ethyl-4H-1,2,4-triazol-3-yl}pyrimidin-4(3H)-one] | 13 nM | < 0.01
CN(Cc1cc(-c2cccc(Cl)c2)on1)c1nnc(-c2cc(=O)[nH]cn2)n1C1CC1 [Example 4.5, 6-{5-[{[5-(3-chlorophenyl)isoxazol-3-yl]methyl}(methyl)amino]-4-cyclopropyl-4H-1,2,4-triazol-3-yl}pyrimidin-4(3H)-one] | 77 nM | < 0.01
CCN(Cc1cc(-c2cccc(C)c2)on1)c1nnc(-c2cn[nH]c(=O)c2)n1C [Example 4.6, 5-[5-(Ethyl{[5-(3-methylphenyl)isoxazol-3-yl]-methyl}amino)-4-methyl-4H-1,2,4-triazol-3-yl]pyridazin-3(2H)-one] | 45 nM | 0.01
CCn1c(-c2cc(=O)[nH]cn2)nnc1N(C)Cc1cc(-c2cccc(C)c2)on1 [Example 4.7, 6-[4-Ethyl-5-(methyl{[5-(3-methylphenyl)isoxazol-3-yl]methyl}amino)-4H-1,2,4-triazol-3-yl]pyrimidin-4(3H)-one] | 53 nM | < 0.015
CCN(Cc1cc(-c2cccc(C)c2)on1)c1nnc(-c2ccn(C)c(=O)c2)n1C [Example 4.8, 4-[5-(Ethyl{[5-(3-methylphenyl)isoxazol-3-yl]methyl}amino)-4-methyl-4H-1,2,4-triazol-3-yl]-1-methylpyridin-2(1H)-one] | 112 nM | 0.22
CCN(Cc1cc(-c2cccc(C)c2)on1)c1nnc(-c2cc[nH]c(=O)c2)n1C [Example 4.9, 4-[5-(Ethyl{[5-(3-methylphenyl)isoxazol-3-yl]methyl}amino)-4-methyl-4H-1,2,4-triazol-3-yl]pyridin-2(1H)-one] | 53 nM | 0.035
CCN(Cc1cc(-c2cccc(Cl)c2)on1)c1nnc(-c2ccn(C)c(=O)c2)n1C [Example 4.10, 4-{5-[{[5-(3-Chlorophenyl)-isoxazol-3-yl]methyl}(ethyl)amino]-4-methyl-4H-1,2,4-triazol-3-yl}-1-methylpyridin-2(1H)-one] | 65 nM | < 0.01
Cc1cccc(-c2cc([C@H](C)N(C)c3nnc(-c4cn[nH]c(=O)c4)n3C)no2)c1 [Example 4.11, (−)-5-[4-Methyl-5-(methyl-{(1S)-1-[5-(3-methylphenyl)isoxazol-3-yl]ethyl}amino)-4H-1,2,4-triazol-3-yl]pyridazin-3(2H)-one] | 43 nM | < 0.01
Cc1cccc(-c2cc([C@H](C)N(C)c3nnc(-c4cc[nH]c(=O)c4)n3C)no2)c1 [Example 4.12, (−)-4-[4-Methyl-5-(methyl-{(1S)-1-[5-(3-methylphenyl)-isoxazol-3-yl]ethyl}amino)-4H-1,2,4-triazol-3-yl]pyridin-2(1H)-one] | 71 nM | < 0.01
CN(Cc1cc(-c2cccc(Cl)c2)on1)c1nnc(-c2ccnnc2)n1C [Example 8.1, N-{[5-(3-Chlorophenyl)isoxazol-3-yl]methyl}-N,4-dimethyl-5-pyridazin-4-yl-4H-1,2,4-triazol-3-amine] | 10 nM | 0.03
CN(Cc1cc(-c2cccc(Cl)c2)on1)c1nnc(-c2cncnc2)n1C [Example 8.2, N-{[5-(3-Chlorophenyl)isoxazol-3-yl]methyl}-N,4-dimethyl-5-pyrimidin-5-yl-4H-1,2,4-triazol-3-amine] | 20 nM | 0.16
Cc1cccc(-c2cc([C@H](C)N(C)c3nnc(-c4ccn(C)c(=O)c4)n3C)no2)c1 [Example 8.3, 1-Methyl-4-[4-methyl-5-(methyl-{(1S)-1-[5-(3-methylphenyl)-isoxazol-3-yl]ethyl}amino)-4H-1,2,4-triazol-3-yl]pyridin-2(1H)-one] | 117 nM | < 0.01
CCN(Cc1noc(-c2cccc(Cl)c2)n1)c1nnc(-c2cn[nH]c(=O)c2)n1C [Example 8.4, 5-{5-[{[5-(3-Chlorophenyl)-1,2,4-oxadiazol-3-yl]methyl}(ethyl)amino]-4-methyl-4H-1,2,4-triazol-3-yl}pyridazin-3(2H)-one] | 43 nM | < 0.01
CCN(Cc1noc(-c2cccc(C)c2)n1)c1nnc(-c2cn[nH]c(=O)c2)n1C [Example 8.5, 5-[5-(Ethyl{[5-(3-methylphenyl)-1,2,4-oxadiazol-3-yl]methyl}amino)-4-methyl-4H-1,2,4-triazol-3-yl]pyridazin-3(2H)-one] | 52 nM | < 0.01
CCN(Cc1noc(-c2cccc(C)c2)n1)c1nnc(-c2ccn(C)c(=O)c2)n1C [Example 8.6, 4-[5-(Ethyl{[5-(3-methylphenyl)-1,2,4-oxadiazol-3-yl]methyl}amino)-4-methyl-4H-1,2,4-triazol-3-yl]-1-methylpyridin-2(1H)-one] | 75 nM | < 0.01
Cc1cccc(-c2cc([C@H](C)N(C)c3nnc(-c4cnn(C)c(=O)c4)n3C)no2)c1 [Example 14, 2-Methyl-5-[4-methyl-5-(methyl{(1S)-1-[5-(3-methylphenyl)isoxazol-3-yl]ethyl}amino)-4H-1,2,4-triazol-3-yl]pyridazin-3(2H)-one] | 12 nM | 0.07
